{"source": "patent US20180042249A1", "about": "“METHOD FOR REDUCTION IN MICROBIAL ACTIVITY IN POULTRY PROCESSING” (Zeco, Inc., priority 2014, published 2018)", "test_system": "bacterial count on poultry carcasses (chicken samples)", "test": "Antimicrobial efficacy of elevated concentration and temperature application of PAA to poultry carcasses (average bacterial count reduction)", "type": "cell-based", "protocol": "As summarized in Table 1 below, ten chicken samples were treated with an elevated peroxyacetic acid concentration at an elevated temperature for a specified period of time using either an equilibrium peroxyacetic acid intervention solution or a pH modified peroxyacetic acid intervention solution. […] The treated poultry carcasses were measured for the average bacterial count reduction as a result of the elevated peroxyacetic acid concentration and elevated temperature."}
{"substance": "peroxyacetic acid [PAA]", "values": [{"measurement": "Average % Reduction (bacterial count)", "setting": "PAA 500 ppm, 72 °F, 10 seconds exposure, pH 7.7 (pH modified PAA solution)", "value": 97.34, "unit": "%"}, {"measurement": "Average % Reduction (bacterial count)", "setting": "PAA 500 ppm, 72 °F, 10 seconds exposure, pH ~3 (equilibrium PAA solution)", "value": 70.57, "unit": "%"}, {"measurement": "Average % Reduction (bacterial count)", "setting": "PAA 500 ppm, 125 °F, 7 seconds exposure, pH 7.7 (pH modified PAA solution)", "value": 93.68, "unit": "%"}, {"measurement": "Average % Reduction (bacterial count)", "setting": "PAA 500 ppm, 125 °F, 7 seconds exposure, pH ~3 (equilibrium PAA solution)", "value": 77.26, "unit": "%"}, {"measurement": "Average % Reduction (bacterial count)", "setting": "PAA 600 ppm, 125 °F, 7 seconds exposure, pH 7.7 (pH modified PAA solution)", "value": 89.34, "unit": "%"}, {"measurement": "Average % Reduction (bacterial count)", "setting": "PAA 600 ppm, 125 °F, 7 seconds exposure, pH ~3 (equilibrium PAA solution)", "value": 61.94, "unit": "%"}, {"measurement": "Average % Reduction (bacterial count)", "setting": "PAA 700 ppm, 125 °F, 7 seconds exposure, pH 7.7 (pH modified PAA solution)", "value": 97.87, "unit": "%"}, {"measurement": "Average % Reduction (bacterial count)", "setting": "PAA 700 ppm, 125 °F, 7 seconds exposure, pH ~3 (equilibrium PAA solution)", "value": 92.27, "unit": "%"}, {"measurement": "bacterial count reduction", "setting": "elevated PAA concentration and temperature, period of time of at least 7 seconds (summary of Table 1)", "value": "≥ 60", "unit": "%"}]}
